The subject of the test is human immortalized myoblasts (cell line 8220). The test is described as follows: 2-deoxyglucose treatment during myoblast proliferation. Format: cell-based. An excerpt:
FIG. 2. Deficiency of TDP-43 or FUS curtails anaerobic glucose metabolism and induces pro-atrophic pathways in myoblasts. A-B-C, Metabolic switch during myogenesis. Myoblasts rely mainly on anaerobic glycolysis while differentiating myocytes and myotubes switch towards a more aerobic metabolism (n=6 experiments). D, shTDP-43 and shFUS-treated myoblasts display consistent reductions in basal glycolysis and glycolytic capacity (n=6 experiments). E, Levels of lactate are decreased in shTDP-43 and shFUS-treated myoblasts (n=3). F, Basal mitochondrial ATP production is slightly affected by TDP-43 or FUS silencing, however effects on spare respiratory capacity are variable (n=6 experiments). G, Immunofluorescence and immublot images of MyoD in 2dg-treated myoblasts. H, Immunostaining images showing the effect of 2dg on the number of MyHC-postive myotubes. I, Pro-atrophic pathways of the […] (UPS) are dramatically augmented in shTDP-43 and shFUS-treated myoblasts (n=3). ECAR, Extracellular Acidification Rate; OCR, Oxygen Consumption Rate: 2dg, 2-deoxyglucose. T-test, *p<0.05; **p<0.01.
Decreased levels of lactate in homogenates from shTDP-43 and shFUS-treated myoblasts when compared to those from shRNA-treated myoblasts corroborated defects in the anaerobic oxidation of glucose (FIG. 2E). […] The increased numbers of mitochondria, as observed by TEM and TOMM20 staining (FIG. 1F,G), may provide a compelling explanation for the increased aerobic potential of shTDP-43 treated myoblasts.
A poor metabolic fitness in muscle is often associated to the upregulation of protein degradation pathways and atrophy. Expression of the key muscle specific E3 ubiquitin ligases, muscle RING finger 1 (MuRF1) and muscle atrophy F-box (MAFbx)/Atrogin-1, are markers of the activation of ubiquitin/proteasome system and atrophy in skeletal muscle.

The mark [1] stands for this setting: 2-DG during myoblast proliferation.

Each structure is given as a SMILES string.

On to `O=CC[C@@H](O)[C@H](O)[C@H](O)CO` [2-DG, 2-deoxyglucose], for which, under setting [1], the “activation of MYOD” value is listed as “reduced the activation of MYOD” and the “myogenic process (MyHC-positive myotubes)” value was “stalled the myogenic process”. For the same compound, the “expression levels of MurF1 and Atrogin-1” value (2-DG treated myoblasts) is “mimicked the effects of TDP-43 and FUS silencing”.

The values are drawn from patent US20240277695A1, “FOXO INHIBITORS FOR USE IN THE TREATMENT OF DISEASES CAUSED BY ABNORMAL PROCESSING OF TDP-43 AND/OR FUS PROTEINS” (Administración General de la Comunidad Autónoma de Euskadi, priority 2020, published 2024).
